N=C(Nc1ccccc1)Nc1ccccc1
solubility (mole fraction)
Conditions | in acetone | in acetonitrile | in ethanol | in ethyl acetate | in isobutanol | in n-butanol | in n-propanol | in toluene
273.15 K | 0.0433 | 0.00828 | 0.0144 | 0.0278 | 0.0124 | 0.018 | 0.0159 | 0.00132
275.65 K | 0.0468 | 0.00909 | 0.0156 | 0.03 | 0.0135 | 0.0194 | 0.0174 | 0.00154
278.15 K | 0.0508 | 0.0101 | 0.017 | 0.0325 | 0.0147 | 0.021 | 0.0189 | 0.00172
280.65 K | 0.0554 | 0.0111 | 0.0184 | 0.0347 | 0.016 | 0.0227 | 0.0204 | 0.00195
283.15 K | 0.0599 | 0.0122 | 0.0199 | 0.0372 | 0.0176 | 0.0245 | 0.0222 | 0.00219
285.65 K | 0.0648 | 0.0134 | 0.0217 | 0.0401 | 0.0189 | 0.0266 | 0.0238 | 0.00249
288.15 K | 0.07 | 0.0147 | 0.0235 | 0.0435 | 0.0208 | 0.0286 | 0.0259 | 0.00282
290.65 K | 0.0751 | 0.0161 | 0.0253 | 0.0463 | 0.0224 | 0.0306 | 0.0278 | 0.00316
293.15 K | 0.0802 | 0.0179 | 0.0273 | 0.0496 | 0.0244 | 0.0329 | 0.0301 | 0.00354
295.65 K | 0.0862 | 0.0197 | 0.0292 | 0.053 | 0.0265 | 0.0352 | 0.0324 | 0.00389
298.15 K | 0.0928 | 0.0214 | 0.0315 | 0.0566 | 0.0286 | 0.0377 | 0.035 | 0.00432
300.65 K | 0.0993 | 0.0234 | 0.0337 | 0.0603 | 0.0311 | 0.0405 | 0.0379 | 0.00476
303.15 K | 0.106 | 0.0254 | 0.0363 | 0.0641 | 0.0333 | 0.0431 | 0.0406 | 0.00528
305.65 K | 0.113 | 0.0278 | 0.039 | 0.0678 | 0.0359 | 0.0462 | 0.0435 | 0.00584
308.15 K | 0.12 | 0.0303 | 0.0419 | 0.0719 | 0.0384 | 0.0494 | 0.0465 | 0.00641
310.65 K | 0.128 | 0.0331 | 0.0448 | 0.0763 | 0.0412 | 0.0527 | 0.0499 | 0.00709
313.15 K | 0.137 | 0.036 | 0.0483 | 0.0814 | 0.0446 | 0.0562 | 0.0537 | 0.00771

— BigSolDB 2.1
